What was measured:
Breast cancer cells = test: Anti-proliferative activity in breast cancer cell lines (DNA content, Hoechst staining); format: cell-based; details: with estradiol 0.1 nM, 7 days after treatment
Method: FIGS. 9A-9C. Anti-proliferative activities of SERDs in select breast cancer cell lines differ primarily in potency. Breast cancer cells were plated in phenol red free media supplemented with charcoal stripped FBS prior to treatment in triplicate wells with the indicated SERMs and SERM-like SERDs (FIG. 9A), acidic SERDs (FIG. 9B), basic SERDs (FIG. 9C) at 10^-12 to 10^-5 M final concentration, followed by addition of estradiol (E2, 0.1 nM) or insulin (2 nM, MCF7 cell line only, bottom panels). 7 days after treatment, plates were harvested and DNA quantitated using fluorescence following Hoechst staining. Average detected fluorescence was normalized to wells receiving no ligand treatment, and relative change in DNA fluorescence was calculated compared to wells treated only with E2. Data are representative of at least 3 independent experiments.

ER = target: T1, ER (Homo sapiens, UniProt P03372); test: ER downregulation in breast cancer cell lines by in-cell western; format: cell-based; details: MCF7, BT483, T47D, ZR751, CAMA1 cells, 24 hours after treatment
T1 construct: SERDs differ in the efficacy of ER downregulation in breast cancer cell lines; endogenous in cells; host or cells: MCF7, BT483, T47D, ZR751, CAMA1
T1 sequence (P03372 1-595): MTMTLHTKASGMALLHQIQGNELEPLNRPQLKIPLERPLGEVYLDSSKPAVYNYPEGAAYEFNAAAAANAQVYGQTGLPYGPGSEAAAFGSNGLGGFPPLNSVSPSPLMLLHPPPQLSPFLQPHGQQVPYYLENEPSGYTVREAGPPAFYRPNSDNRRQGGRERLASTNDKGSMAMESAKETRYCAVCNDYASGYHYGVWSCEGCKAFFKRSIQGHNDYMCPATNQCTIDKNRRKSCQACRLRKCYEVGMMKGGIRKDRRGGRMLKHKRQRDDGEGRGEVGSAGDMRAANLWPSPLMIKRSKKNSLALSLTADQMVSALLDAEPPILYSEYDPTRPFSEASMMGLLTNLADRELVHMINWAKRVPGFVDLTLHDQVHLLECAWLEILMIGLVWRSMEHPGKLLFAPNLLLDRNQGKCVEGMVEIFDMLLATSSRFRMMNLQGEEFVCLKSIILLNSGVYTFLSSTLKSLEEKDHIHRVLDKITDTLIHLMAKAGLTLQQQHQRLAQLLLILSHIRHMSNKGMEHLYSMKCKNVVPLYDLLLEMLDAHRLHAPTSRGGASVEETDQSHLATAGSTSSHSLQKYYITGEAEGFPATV
Method: FIGS. 8A-8B. SERDs differ in the efficacy of ER downregulation in breast cancer cell lines. Breast cancer cells, including MCF7, BT483, T47D, ZR751, and CAMA1, were plated in phenol red free media supplemented with charcoal stripped FBS prior to treatment in triplicate wells with the indicated SERMs or SERDs (10-11-10-5 M final concentration). 24 hours after treatment, cells were fixed to the plates, and ER levels were analyzed by in-cell western using a fluorophore conjugated secondary antibody. Average detected ER levels were normalized to well DNA content using DRAQ5 staining. Relative ER turnover was calculated as a ratio of normalized ER levels detected in treated wells to untreated wells. Data were representative of at least 3 independent experiments. Data for each cell line were graphed in 2 panels to categorize SERDs by chemical properties, separating basic SERDs (FIG. 8A) and those having carboxylic acid group(s) (FIG. 8B). Serm-like SERDs bazedoxifene and elacestrant were also presented in (FIG. 8A) for reference. Fulvestrant was included on both graphs for all cell lines to facilitate comparison.

- ER downregulation / ER degradation (ER): generally the least efficient SERD
SMILES: CCNCCc1ccc(CN(CC)c2cc(OC)ccc2[C@@H]2CCc3cc(O)ccc3C2)cc1 [elacestrant]
- inhibition of cellular proliferation (Breast cancer cells): efficacy similar to that observed for other SERDs

Source: patent publication US20260207624A1, “COADMINISTRATION OF ESTROGEN WITH ESTROGEN RECEPTOR MODULATOR OR DEGRADER OR ER TARGETED PROTAC FOR THE TREATMENT OF ESTROGEN RESPONSIVE CANCERS” (Duke University, priority 2022, published 2026)
